One experiment relates to BXPC-3. The experiment in a line: Antiproliferative activity against human BxPC3 cell line by MTT assay. The experiment is classed as functional, cell-based.
The test system of the next experiment is PC-3. The experiment in a line: Antiproliferative activity against human PC3 cell line by MTT assay. The experiment is classed as functional, cell-based.
For experiment [1], the target named is RAC-alpha serine/threonine-protein kinase (Homo sapiens, UniProt P31749). The experiment in a line: Inhibition of Akt by fluorescence polarization assay. For orientation: Polarisation of emitted light reports the rotation of a fluorescent probe.
Another experiment has as its system BT-20. The experiment in a line: Antiproliferative activity against human BT20 cell line by MTT assay. The experiment is classed as functional, cell-based. For orientation: Tetrazolium assays rely on reduction of a dye to a coloured formazan, in cell work by metabolically active cells.
A further experiment has as its system COLO357. The experiment in a line: Antiproliferative activity against human COLO357 cell line by MTT assay. Type of experiment: functional, cell-based.

This note sets out measurements from ChEMBL document CHEMBL1138054, “Synthesis, molecular characterization, and biological activity of novel synthetic derivatives of chromen-4-one in human cancer cells” (J Med Chem, 2006).

Sequence of RAC-alpha serine/threonine-protein kinase (P31749 whole entry): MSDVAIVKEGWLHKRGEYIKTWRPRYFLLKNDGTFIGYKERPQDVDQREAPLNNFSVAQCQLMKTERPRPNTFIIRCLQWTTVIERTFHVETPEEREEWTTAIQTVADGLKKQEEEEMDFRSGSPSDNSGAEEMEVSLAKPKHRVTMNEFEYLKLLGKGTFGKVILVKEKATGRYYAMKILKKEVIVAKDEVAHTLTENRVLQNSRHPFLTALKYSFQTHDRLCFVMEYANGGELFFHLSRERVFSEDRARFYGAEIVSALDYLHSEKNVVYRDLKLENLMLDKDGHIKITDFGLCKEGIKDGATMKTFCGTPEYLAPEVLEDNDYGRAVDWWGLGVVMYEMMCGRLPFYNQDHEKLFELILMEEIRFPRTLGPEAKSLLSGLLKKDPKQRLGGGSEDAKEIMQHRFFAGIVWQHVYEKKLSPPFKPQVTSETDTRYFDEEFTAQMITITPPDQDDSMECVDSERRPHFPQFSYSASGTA

A word on the IC50: it is the concentration at which inhibition is half-maximal. Regarding `O=c1c(-c2ccc(O)cc2)coc2cc(O)cc(O)c12` [GENISTEIN], the IC50 was 30 µM in the experiment on BXPC-3; 50 µM with PC-3; over 70 µM in experiment [1]; 46 µM in the experiment with BT-20; 50 µM in the experiment with COLO357.
